Experimental data reported in ChEMBL document CHEMBL1944551, “An integrated computational workflow for efficient and quantitative modeling of renin inhibitors” (Bioorg Med Chem, 2012).

Experiment: physchem
Conditions: octanol/buffer

In order of rising logP:
1. COCCCc1cc(CN(C(=O)[C@H]2CNCC(=O)N2c2cnc(OCCCOCc3ccccc3OC)nc2)C2CC2)c(Cl)cn1  2.43
2. COCCCc1cc(CN(C(=O)[C@H]2CNCC(=O)N2c2cnc(OCCCOCc3ccccc3OC)nc2)C2CC2)c(Cl)c[n+]1[O-]  2.65
3. COC(=O)NCc1ccc(Cl)c(CN(C(=O)[C@H]2CNCC(=O)N2c2cnc(OCCCOCc3ccccc3OC)nc2)C2CC2)c1  2.8
4. COC(=O)NCCc1ccc(Cl)c(CN(C(=O)[C@H]2CNCC(=O)N2c2cnc(OCCCOCc3ccccc3OC)nc2)C2CC2)c1  2.88
5. CNC(=O)OCCc1ccc(Cl)c(CN(C(=O)[C@H]2CNCC(=O)N2c2cnc(OCCCOCc3ccccc3OC)nc2)C2CC2)c1  2.88
6. CNCCc1ccc(Cl)c(CN(C(=O)[C@H]2CNCC(=O)N2c2cnc(OCCCOCc3ccccc3OC)nc2)C2CC2)c1  2.95
7. COc1ccccc1COCCCOc1ncc(N2C(=O)CNC[C@@H]2C(=O)N(Cc2cc(CNC(=O)CC(F)(F)F)ccc2Cl)C2CC2)cn1  3.23
8. COc1ccccc1COCCCOc1ncc(N2C(=O)CNC[C@@H]2C(=O)N(Cc2cc(CCNC3CC3)ccc2Cl)C2CC2)cn1  3.61
9. COCCCc1ccc(Cl)c(CN(C(=O)[C@H]2CNCC(=O)N2c2cnc(OCCCOCc3ccccc3OC)nc2)C2CC2)c1  3.7
10. COCCCc1cc(CN(C(=O)[C@H]2CNCC(=O)N2c2ccc(COC(=O)c3ccccc3)cc2)C2CC2)c(Cl)cn1  4.11
11. COCCCc1cc(CN(C(=O)[C@H]2CNCC(=O)N2c2ccc(COC(=O)c3ccccc3)cc2)C2CC2)c(Cl)c[n+]1[O-]  4.33
12. COCCCc1cc(CN(C(=O)[C@H]2CNCC(=O)N2c2ccc(OCCOc3c(Cl)cc(C)cc3Cl)nc2)C2CC2)c(Cl)cn1  4.39
13. COCCCc1cc(CN(C(=O)[C@H]2CNCC(=O)N2c2ccc(OCCCOCc3ccccc3OC)cc2)C2CC2)c(Cl)cn1  4.44
14. COC(=O)NCc1ccc(Cl)c(CN(C(=O)[C@H]2CNCC(=O)N2c2ccc(COC(=O)c3ccccc3)cc2)C2CC2)c1  4.48
15. COCCCc1cc(CN(C(=O)[C@H]2CNCC(=O)N2c2ccc(OCCCOCc3ccccc3)cc2)C2CC2)c(Cl)cn1  4.49
16. CNC(=O)OCCc1ccc(Cl)c(CN(C(=O)[C@H]2CNCC(=O)N2c2ccc(COC(=O)c3ccccc3)cc2)C2CC2)c1  4.57
17. COCCCc1cc(CN(C(=O)[C@H]2CNCC(=O)N2c2ccc(OCCOc3c(Cl)cc(C)cc3Cl)nc2)C2CC2)c(Cl)c[n+]1[O-]  4.61
18. CNCCc1ccc(Cl)c(CN(C(=O)[C@H]2CNCC(=O)N2c2ccc(COC(=O)c3ccccc3)cc2)C2CC2)c1  4.64
19. COCCCc1cc(CN(C(=O)[C@H]2CNCC(=O)N2c2ccc(OCCCOCc3ccccc3OC)cc2)C2CC2)c(Cl)c[n+]1[O-]  4.66
20. COCCCc1cc(CN(C(=O)[C@H]2CNCC(=O)N2c2ccc(OCCCOCc3ccccc3)cc2)C2CC2)c(Cl)c[n+]1[O-]  4.71
21. COC(=O)NCc1ccc(Cl)c(CN(C(=O)[C@H]2CNCC(=O)N2c2ccc(OCCOc3c(Cl)cc(C)cc3Cl)nc2)C2CC2)c1  4.75
22. COC(=O)NCc1ccc(Cl)c(CN(C(=O)[C@H]2CNCC(=O)N2c2ccc(OCCCOCc3ccccc3OC)cc2)C2CC2)c1  4.81
23. CNC(=O)OCCc1ccc(Cl)c(CN(C(=O)[C@H]2CNCC(=O)N2c2ccc(OCCOc3c(Cl)cc(C)cc3Cl)nc2)C2CC2)c1  4.84
24. COC(=O)NCc1ccc(Cl)c(CN(C(=O)[C@H]2CNCC(=O)N2c2ccc(OCCCOCc3ccccc3)cc2)C2CC2)c1  4.85
25. COC(=O)NCCc1ccc(Cl)c(CN(C(=O)[C@H]2CNCC(=O)N2c2ccc(OCCCOCc3ccccc3OC)cc2)C2CC2)c1  4.9
26. CNC(=O)OCCc1ccc(Cl)c(CN(C(=O)[C@H]2CNCC(=O)N2c2ccc(OCCCOCc3ccccc3OC)cc2)C2CC2)c1  4.9
27. CNCCc1ccc(Cl)c(CN(C(=O)[C@H]2CNCC(=O)N2c2ccc(OCCOc3c(Cl)cc(C)cc3Cl)nc2)C2CC2)c1  4.91
28. O=C(CC(F)(F)F)NCc1ccc(Cl)c(CN(C(=O)[C@H]2CNCC(=O)N2c2ccc(COC(=O)c3ccccc3)cc2)C2CC2)c1  4.92
29. COC(=O)NCCc1ccc(Cl)c(CN(C(=O)[C@H]2CNCC(=O)N2c2ccc(OCCCOCc3ccccc3)cc2)C2CC2)c1  4.94
30. CNC(=O)OCCc1ccc(Cl)c(CN(C(=O)[C@H]2CNCC(=O)N2c2ccc(OCCCOCc3ccccc3)cc2)C2CC2)c1  4.94
31. CNCCc1ccc(Cl)c(CN(C(=O)[C@H]2CNCC(=O)N2c2ccc(OCCCOCc3ccccc3OC)cc2)C2CC2)c1  4.97
32. CNCCc1ccc(Cl)c(CN(C(=O)[C@H]2CNCC(=O)N2c2ccc(OCCCOCc3ccccc3)cc2)C2CC2)c1  5.01
33. COCCCc1cc(CN(C(=O)[C@H]2CNCC(=O)N2c2ccc(CCCOc3c(F)ccc(F)c3F)cc2)C2CC2)c(Cl)cn1  5.11
34. Cc1cc(Cl)c(OCCOc2ccc(N3C(=O)CNC[C@@H]3C(=O)N(Cc3cc(CNC(=O)CC(F)(F)F)ccc3Cl)C3CC3)cn2)c(Cl)c1  5.19
35. COCCCc1cc(CN(C(=O)[C@H]2CNCC(=O)N2c2ccc(OCCOc3c(Cl)cc(C)cc3Cl)cc2)C2CC2)c(Cl)cn1  5.22
36. COc1ccccc1COCCCOc1ccc(N2C(=O)CNC[C@@H]2C(=O)N(Cc2cc(CNC(=O)CC(F)(F)F)ccc2Cl)C2CC2)cc1  5.25
37. COCCCc1cc(CN(C(=O)[C@H]2CNCC(=O)N2c2ccc(CCCOc3cccc(Cl)c3)cc2)C2CC2)c(Cl)cn1  5.29
38. O=C(CC(F)(F)F)NCc1ccc(Cl)c(CN(C(=O)[C@H]2CNCC(=O)N2c2ccc(OCCCOCc3ccccc3)cc2)C2CC2)c1  5.29
39. O=C(OCc1ccc(N2C(=O)CNC[C@@H]2C(=O)N(Cc2cc(CCNC3CC3)ccc2Cl)C2CC2)cc1)c1ccccc1  5.29
40. COCCCc1cc(CN(C(=O)[C@H]2CNCC(=O)N2c2ccc(CCCOc3c(F)ccc(F)c3F)cc2)C2CC2)c(Cl)c[n+]1[O-]  5.33
41. COCCCc1ccc(Cl)c(CN(C(=O)[C@H]2CNCC(=O)N2c2ccc(COC(=O)c3ccccc3)cc2)C2CC2)c1  5.39
42. COCCCc1cc(CN(C(=O)[C@H]2CNCC(=O)N2c2ccc(OCCOc3c(Cl)cc(C)cc3Cl)cc2)C2CC2)c(Cl)c[n+]1[O-]  5.43
43. COC(=O)NCc1ccc(Cl)c(CN(C(=O)[C@H]2CNCC(=O)N2c2ccc(CCCOc3c(F)ccc(F)c3F)cc2)C2CC2)c1  5.48
44. Cc1cc(Cl)c(OCCOc2ccc(N3C(=O)CNC[C@@H]3C(=O)N(Cc3cc(CNC4CC4)ccc3Cl)C3CC3)cn2)c(Cl)c1  5.48
45. COCCCc1cc(CN(C(=O)[C@H]2CNCC(=O)N2c2ccc(CCCOc3cccc(Cl)c3)cc2)C2CC2)c(Cl)c[n+]1[O-]  5.51
46. COC(=O)NCCc1ccc(Cl)c(CN(C(=O)[C@H]2CNCC(=O)N2c2ccc(CCCOc3c(F)ccc(F)c3F)cc2)C2CC2)c1  5.56
47. CNC(=O)OCCc1ccc(Cl)c(CN(C(=O)[C@H]2CNCC(=O)N2c2ccc(CCCOc3c(F)ccc(F)c3F)cc2)C2CC2)c1  5.56
48. Cc1cc(Cl)c(OCCOc2ccc(N3C(=O)CNC[C@@H]3C(=O)N(Cc3cc(CCNC4CC4)ccc3Cl)C3CC3)cn2)c(Cl)c1  5.56
49. COC(=O)NCc1ccc(Cl)c(CN(C(=O)[C@H]2CNCC(=O)N2c2ccc(OCCOc3c(Cl)cc(C)cc3Cl)cc2)C2CC2)c1  5.58
50. COc1ccccc1COCCCOc1ccc(N2C(=O)CNC[C@@H]2C(=O)N(Cc2cc(CCNC3CC3)ccc2Cl)C2CC2)cc1  5.62
51. CNCCc1ccc(Cl)c(CN(C(=O)[C@H]2CNCC(=O)N2c2ccc(CCCOc3c(F)ccc(F)c3F)cc2)C2CC2)c1  5.63
52. COC(=O)NCc1ccc(Cl)c(CN(C(=O)[C@H]2CNCC(=O)N2c2ccc(CCCOc3cccc(Cl)c3)cc2)C2CC2)c1  5.65
53. COCCCc1ccc(Cl)c(CN(C(=O)[C@H]2CNCC(=O)N2c2ccc(OCCOc3c(Cl)cc(C)cc3Cl)nc2)C2CC2)c1  5.66
54. O=C([C@H]1CNCC(=O)N1c1ccc(OCCCOCc2ccccc2)cc1)N(Cc1cc(CCNC2CC2)ccc1Cl)C1CC1  5.66
55. CNC(=O)OCCc1ccc(Cl)c(CN(C(=O)[C@H]2CNCC(=O)N2c2ccc(OCCOc3c(Cl)cc(C)cc3Cl)cc2)C2CC2)c1  5.67
56. COCCCc1ccc(Cl)c(CN(C(=O)[C@H]2CNCC(=O)N2c2ccc(OCCCOCc3ccccc3OC)cc2)C2CC2)c1  5.72
57. CNCCc1ccc(Cl)c(CN(C(=O)[C@H]2CNCC(=O)N2c2ccc(OCCOc3c(Cl)cc(C)cc3Cl)cc2)C2CC2)c1  5.74
58. COC(=O)NCCc1ccc(Cl)c(CN(C(=O)[C@H]2CNCC(=O)N2c2ccc(CCCOc3cccc(Cl)c3)cc2)C2CC2)c1  5.74
59. CNC(=O)OCCc1ccc(Cl)c(CN(C(=O)[C@H]2CNCC(=O)N2c2ccc(CCCOc3cccc(Cl)c3)cc2)C2CC2)c1  5.74
60. COCCCc1ccc(Cl)c(CN(C(=O)[C@H]2CNCC(=O)N2c2ccc(OCCCOCc3ccccc3)cc2)C2CC2)c1  5.76
61. CNCCc1ccc(Cl)c(CN(C(=O)[C@H]2CNCC(=O)N2c2ccc(CCCOc3cccc(Cl)c3)cc2)C2CC2)c1  5.81
62. O=C(CC(F)(F)F)NCc1ccc(Cl)c(CN(C(=O)[C@H]2CNCC(=O)N2c2ccc(CCCOc3c(F)ccc(F)c3F)cc2)C2CC2)c1  5.91
63. Cc1cc(Cl)c(OCCOc2ccc(N3C(=O)CNC[C@@H]3C(=O)N(Cc3cc(CNC(=O)CC(F)(F)F)ccc3Cl)C3CC3)cc2)c(Cl)c1  6.02
64. O=C(CC(F)(F)F)NCc1ccc(Cl)c(CN(C(=O)[C@H]2CNCC(=O)N2c2ccc(CCCOc3cccc(Cl)c3)cc2)C2CC2)c1  6.09
65. O=C([C@H]1CNCC(=O)N1c1ccc(CCCOc2c(F)ccc(F)c2F)cc1)N(Cc1cc(CCNC2CC2)ccc1Cl)C1CC1  6.29
66. Cc1cc(Cl)c(OCCOc2ccc(N3C(=O)CNC[C@@H]3C(=O)N(Cc3cc(CNC4CC4)ccc3Cl)C3CC3)cc2)c(Cl)c1  6.3
67. COCCCc1ccc(Cl)c(CN(C(=O)[C@H]2CNCC(=O)N2c2ccc(CCCOc3c(F)ccc(F)c3F)cc2)C2CC2)c1  6.39
68. Cc1cc(Cl)c(OCCOc2ccc(N3C(=O)CNC[C@@H]3C(=O)N(Cc3cc(CCNC4CC4)ccc3Cl)C3CC3)cc2)c(Cl)c1  6.39
69. O=C([C@H]1CNCC(=O)N1c1ccc(CCCOc2cccc(Cl)c2)cc1)N(Cc1cc(CCNC2CC2)ccc1Cl)C1CC1  6.46
70. COCCCc1ccc(Cl)c(CN(C(=O)[C@H]2CNCC(=O)N2c2ccc(OCCOc3c(Cl)cc(C)cc3Cl)cc2)C2CC2)c1  6.49
71. COCCCc1ccc(Cl)c(CN(C(=O)[C@H]2CNCC(=O)N2c2ccc(CCCOc3cccc(Cl)c3)cc2)C2CC2)c1  6.56
